Test results reported in ChEMBL document CHEMBL5104143, “Synthesis and evaluation of hydrazinyl-containing pyrrolo[2,3-d]pyrimidine series as potent, selective and oral JAK1 inhibitors for the treatment of rheumatoid arthritis” (Bioorg Med Chem Lett, 2022).

Key:
[1] = molecular target: Tyrosine-protein kinase JAK2 (Homo sapiens, UniProt O60674)
Description: Inhibition of JAK2 (unknown origin)

[2] = molecular target: T1, Tyrosine-protein kinase JAK3 (Homo sapiens, UniProt P52333)
T1 sequence (P52333 whole entry): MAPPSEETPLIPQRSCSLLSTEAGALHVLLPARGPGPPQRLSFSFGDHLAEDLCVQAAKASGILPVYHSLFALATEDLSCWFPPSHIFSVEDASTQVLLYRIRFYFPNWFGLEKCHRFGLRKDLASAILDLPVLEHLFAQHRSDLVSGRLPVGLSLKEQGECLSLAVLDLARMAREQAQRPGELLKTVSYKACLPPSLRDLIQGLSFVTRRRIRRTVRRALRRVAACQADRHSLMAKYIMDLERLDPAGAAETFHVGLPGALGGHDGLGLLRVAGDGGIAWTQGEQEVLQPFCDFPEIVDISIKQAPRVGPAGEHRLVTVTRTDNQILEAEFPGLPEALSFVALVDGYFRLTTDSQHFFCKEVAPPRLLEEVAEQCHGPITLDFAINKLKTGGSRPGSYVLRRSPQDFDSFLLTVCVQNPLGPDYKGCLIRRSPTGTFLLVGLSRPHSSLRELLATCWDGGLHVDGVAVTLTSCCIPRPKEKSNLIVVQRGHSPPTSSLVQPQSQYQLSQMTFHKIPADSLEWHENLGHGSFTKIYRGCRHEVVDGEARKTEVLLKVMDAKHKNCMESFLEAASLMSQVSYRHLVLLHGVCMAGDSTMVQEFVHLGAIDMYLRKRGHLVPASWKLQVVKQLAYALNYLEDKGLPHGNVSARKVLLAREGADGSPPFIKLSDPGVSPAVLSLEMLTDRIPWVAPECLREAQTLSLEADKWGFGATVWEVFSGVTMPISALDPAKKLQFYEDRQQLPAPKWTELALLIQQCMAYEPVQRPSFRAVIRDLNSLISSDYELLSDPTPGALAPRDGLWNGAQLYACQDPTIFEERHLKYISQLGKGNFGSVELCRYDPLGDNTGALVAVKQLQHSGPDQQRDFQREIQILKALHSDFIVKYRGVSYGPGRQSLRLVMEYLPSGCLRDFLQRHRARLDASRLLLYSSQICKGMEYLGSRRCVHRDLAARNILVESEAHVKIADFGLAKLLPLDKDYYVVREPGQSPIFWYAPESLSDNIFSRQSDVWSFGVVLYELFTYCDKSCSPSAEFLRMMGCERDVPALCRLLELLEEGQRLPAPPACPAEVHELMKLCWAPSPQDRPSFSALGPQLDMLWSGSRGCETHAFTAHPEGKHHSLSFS
Description: Inhibition of JAK3 (unknown origin)

[3] = molecular target: Tyrosine-protein kinase JAK1 (Homo sapiens, UniProt P23458); assay: Inhibition of JAK1 (unknown origin)
Sequence of Tyrosine-protein kinase JAK1 (P23458 whole entry): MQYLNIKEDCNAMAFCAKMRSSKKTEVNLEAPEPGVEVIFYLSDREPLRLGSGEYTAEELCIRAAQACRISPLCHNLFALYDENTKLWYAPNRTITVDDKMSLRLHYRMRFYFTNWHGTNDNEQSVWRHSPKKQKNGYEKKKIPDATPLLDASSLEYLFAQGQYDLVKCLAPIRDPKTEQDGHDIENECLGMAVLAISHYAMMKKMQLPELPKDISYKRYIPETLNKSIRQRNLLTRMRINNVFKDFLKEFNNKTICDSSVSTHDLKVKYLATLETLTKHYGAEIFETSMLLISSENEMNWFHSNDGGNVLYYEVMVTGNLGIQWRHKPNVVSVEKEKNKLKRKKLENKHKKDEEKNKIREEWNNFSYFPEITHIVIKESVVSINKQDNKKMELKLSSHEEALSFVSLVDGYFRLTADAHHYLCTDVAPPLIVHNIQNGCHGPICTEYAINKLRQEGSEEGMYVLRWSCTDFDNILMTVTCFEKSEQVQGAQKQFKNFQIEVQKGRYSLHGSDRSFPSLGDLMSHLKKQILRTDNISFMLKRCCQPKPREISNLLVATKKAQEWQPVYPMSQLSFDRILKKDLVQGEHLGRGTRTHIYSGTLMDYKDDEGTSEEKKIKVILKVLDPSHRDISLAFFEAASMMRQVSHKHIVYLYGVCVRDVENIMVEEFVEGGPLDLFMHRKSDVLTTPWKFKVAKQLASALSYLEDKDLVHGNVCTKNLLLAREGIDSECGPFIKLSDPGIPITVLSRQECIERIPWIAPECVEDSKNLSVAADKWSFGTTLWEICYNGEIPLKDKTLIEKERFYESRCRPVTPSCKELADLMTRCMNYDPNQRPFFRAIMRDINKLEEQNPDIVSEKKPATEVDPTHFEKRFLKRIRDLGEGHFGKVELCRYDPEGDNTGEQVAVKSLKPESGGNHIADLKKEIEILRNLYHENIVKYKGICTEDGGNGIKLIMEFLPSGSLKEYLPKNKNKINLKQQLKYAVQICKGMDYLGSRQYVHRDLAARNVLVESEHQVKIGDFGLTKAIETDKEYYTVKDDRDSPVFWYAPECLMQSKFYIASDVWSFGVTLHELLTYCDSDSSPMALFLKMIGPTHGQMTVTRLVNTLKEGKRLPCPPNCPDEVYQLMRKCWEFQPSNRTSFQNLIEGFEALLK

Sequence of Tyrosine-protein kinase JAK2 (O60674 whole entry): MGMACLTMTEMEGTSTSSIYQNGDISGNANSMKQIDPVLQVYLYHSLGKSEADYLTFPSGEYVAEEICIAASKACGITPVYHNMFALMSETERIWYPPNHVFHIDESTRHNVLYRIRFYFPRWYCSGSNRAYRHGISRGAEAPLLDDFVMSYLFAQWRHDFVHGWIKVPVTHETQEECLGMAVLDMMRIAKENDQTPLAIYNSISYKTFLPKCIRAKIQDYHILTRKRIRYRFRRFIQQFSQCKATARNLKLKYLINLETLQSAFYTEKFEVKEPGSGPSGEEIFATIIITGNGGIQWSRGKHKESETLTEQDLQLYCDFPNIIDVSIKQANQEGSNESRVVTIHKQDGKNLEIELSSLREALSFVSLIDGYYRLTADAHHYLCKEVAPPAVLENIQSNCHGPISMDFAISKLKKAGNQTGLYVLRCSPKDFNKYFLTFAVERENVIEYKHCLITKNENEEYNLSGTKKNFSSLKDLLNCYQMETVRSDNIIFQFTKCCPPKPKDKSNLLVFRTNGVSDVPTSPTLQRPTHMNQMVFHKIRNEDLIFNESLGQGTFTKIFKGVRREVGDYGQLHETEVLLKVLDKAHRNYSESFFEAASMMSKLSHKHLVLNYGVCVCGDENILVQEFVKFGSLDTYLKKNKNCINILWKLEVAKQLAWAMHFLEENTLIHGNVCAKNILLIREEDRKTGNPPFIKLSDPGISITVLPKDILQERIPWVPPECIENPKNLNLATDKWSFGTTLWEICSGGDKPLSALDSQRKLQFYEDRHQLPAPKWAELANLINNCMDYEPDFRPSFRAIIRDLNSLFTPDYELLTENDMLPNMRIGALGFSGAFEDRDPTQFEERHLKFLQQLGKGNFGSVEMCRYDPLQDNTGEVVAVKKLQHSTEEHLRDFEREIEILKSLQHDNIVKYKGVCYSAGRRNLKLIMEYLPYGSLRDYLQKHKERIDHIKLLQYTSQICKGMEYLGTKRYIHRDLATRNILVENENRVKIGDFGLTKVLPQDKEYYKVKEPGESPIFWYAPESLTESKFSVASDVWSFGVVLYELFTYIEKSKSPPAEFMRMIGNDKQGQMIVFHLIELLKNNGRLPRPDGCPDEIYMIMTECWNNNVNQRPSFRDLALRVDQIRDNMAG

SMILES | IC50 [1] | IC50 [2] | IC50 [3]
CN(c1ncnc2[nH]ccc12)N1CCCN(C(=O)CC(F)(F)F)CC1 | 10000 nM | 10000 nM | 10000 nM
CN(c1ncnc2[nH]ccc12)N1CCCC(C)(C(=O)NCC#N)C1 (configuration not stated) | 4800 nM | 1580 nM | 1860 nM
CN(c1ncnc2[nH]ccc12)N1CCC(C)(C(=O)NCC(F)(F)F)C1 (configuration not stated) | 10000 nM | 5970 nM | 5020 nM
CN(c1ncnc2[nH]ccc12)N1CCC(C(=O)NCC(F)(F)F)CC1 | 316 nM | 186 nM | 14 nM
CN(c1ncnc2[nH]ccc12)N1CCCC(C(=O)N2CC(O)C2)C1 (configuration not stated) | 817 nM | 518 nM | 155 nM
CN(c1ncnc2[nH]ccc12)N1CCC(C(=O)NCC#N)CC1 | 272 nM | 287 nM | 12 nM
COCNC(=O)C1CCCN(N(C)c2ncnc3[nH]ccc23)C1 (configuration not stated) | 148 nM | 83.2 nM | 21.3 nM
CN(c1ncnc2[nH]ccc12)N1CCCC(C(=O)NCCC#N)C1 (configuration not stated) | – | 188 nM | 35 nM
CC1CCC(C(=O)NCC#N)CN1N(C)c1ncnc2[nH]ccc12 (configuration not stated) | 1430 nM | 362 nM | 521 nM
CN(c1ncnc2[nH]ccc12)N1CCCC(N2CCCC2=O)C1 (configuration not stated) | 3500 nM | 349 nM | 1120 nM
CN(CC(F)(F)F)C(=O)C1CCCN(N(C)c2ncnc3[nH]ccc23)C1 (configuration not stated) | 165 nM | 77.4 nM | 15.1 nM
CC1CCC(C(=O)NCC(F)(F)F)CN1N(C)c1ncnc2[nH]ccc12 (configuration not stated) | 2000 nM | 339 nM | 309 nM

Now those with a lower IC50 [2], led by results:

IC50 [1] | IC50 [2] | IC50 [3] | SMILES
3.6 nM | 3.9 nM | 0.3 nM | CN(c1ncnc2[nH]ccc12)N1CCC[C@@H](C(=O)NCC#N)C1
43 nM | 25.1 nM | 3.3 nM | CN(c1ncnc2[nH]ccc12)N1CCC(C(=O)NCC#N)C1 (configuration not stated)
36 nM | 29 nM | 1.9 nM | CN(c1ncnc2[nH]ccc12)N1CCC(C(=O)NCC(F)(F)F)C1 (configuration not stated)
16.1 nM | 8.3 nM | 1.6 nM | CN(c1ncnc2[nH]ccc12)N1CCCC(C(=O)NCC(F)F)C1 (configuration not stated)
13 nM | 6.2 nM | 0.7 nM | CN(c1ncnc2[nH]ccc12)N1CCC[C@@H](C(=O)NCC(F)(F)F)C1
11.6 nM | 8 nM | 1.6 nM | CN(c1ncnc2[nH]ccc12)N1CCCC(C(=O)NCC#N)C1 (configuration not stated)
33.2 nM | 16.1 nM | 2.9 nM | CN(c1ncnc2[nH]ccc12)N1CCCC(C(=O)NCC(F)(F)F)C1 (configuration not stated)
361 nM | 13 nM | 18 nM | CN(c1ncnc2[nH]ccc12)N1CC[C@H](C(=O)NCC(F)(F)F)C1
8.5 nM | 15 nM | 0.16 nM | CN(c1ncnc2[nH]ccc12)N1CC[C@@H](C(=O)NCC(F)(F)F)C1
